Earlier results as cited in article PMC7155743 (The journal of physical chemistry. B, 2019).
“Also recorded” adds a separate entry of the source.

Experiments:
[1] = aqueous solution
[2] = not given; remark: listed apart in the source

| Substance | appearance of peptide in water at 1 mg/mL | aggregation state by DOSY [1] | fibrillization after incubation in water for 3 h ([2]; water, 3 h) | solubility (qualitative) [2] |
| --- | --- | --- | --- | --- |
| D2Q10K2 [DQ10] | clear solutions | predominately monomeric; also recorded: predominantly monomeric | – | – |
| D2Q10K2 [NDQ10] | clear solutions | predominately monomeric; also recorded: predominantly monomeric | – | – |
| K2Q9PGQ4AQ4PGQ9PGQ9K2 [NDPGQ9A] | – | – | do not observe signs of NDPGQ9A fibrillization | – |
| K2Q9PGQ4AQ4PGQ9PGQ9K2 [PGQ9A] | – | – | – | insoluble |
